Measurements reported in patent publication US20150238494A1, “HIGHLY SOLUBLE PURINE BIOACTIVE COMPOUNDS AND COMPOSITIONS THEREOF” (JHO Intellectual Property Holdings, LLC, priority 2014, published 2015).

Legend:
[1] = Stability of theacrine solutions 0.1%, 0.2%, 0.4% in USP type I glass vials, 3 months at 40° C.; assay type: physicochemical; conditions: Storage 40 C., in % (unit assumed)
[2] = Stability of theacrine solution 1.3 mg/ml in USP Type I glass vials, 15 weeks at RT and 40° C.; assay type: physicochemical; conditions: 1.3 mg/ml solution, in % (unit assumed)
Description: The Table 1 below is data indicating assay results for stability of a theacrine solution prepared at 1.3 mg/ml and stored in USP Type I Glass vials for 15 weeks at RT and 40° C.

## Cn1c(=O)c2c(n(C)c1=O)n(C)c(=O)n2C [Theacrine, 1,3,7,9-Tetramethyluric acid]
[1]; 0.1% Solution, 1-M
  Assay value: 101
[1]; 0.1% Solution, 2-M
  Assay value: 100.4
[1]; 0.1% Solution, 3-M
  Assay value: 100.7
[1]; 0.1% Solution, 10-d
  Assay value: 100.4
[1]; 0.1% Solution, Initial
  Assay value: 100.6
[1]; 0.2% Solution, 1-M
  Assay value: 98.9
[1]; 0.2% Solution, 2-M
  Assay value: 97.5
[1]; 0.2% Solution, 3-M
  Assay value: 99.4
[1]; 0.2% Solution, 10-d
  Assay value: 98.6
[1]; 0.2% Solution, Initial
  Assay value: 99.8
[1]; 0.4% Solution, 1-M
  Assay value: 94.9
[1]; 0.4% Solution, 2-M
  Assay value: 95.3
[1]; 0.4% Solution, 3-M
  Assay value: 95.8
[1]; 0.4% Solution, 10-d
  Assay value: 92.3
[1]; 0.4% Solution, Initial
  Assay value: 94.1
[2]; Room Temperature (RT), 1-wk
  Assay: 98.7
[2]; Room Temperature (RT), 2-wk
  Assay: 100.1
[2]; Room Temperature (RT), 4-wk
  Assay: 99.2
[2]; Room Temperature (RT), 8-wk
  Assay: 99.9
[2]; Room Temperature (RT), 15-wk
  Assay: 99.3
[2]; Room Temperature (RT), Initial
  Assay: 99.6
[2]; Storage 40 C., 1-wk
  Assay: 98.2
[2]; Storage 40 C., 2-wk
  Assay: 98.9
[2]; Storage 40 C., 4-wk
  Assay: 98.7
[2]; Storage 40 C., 8-wk
  Assay: 98.6
[2]; Storage 40 C., 15-wk
  Assay: 98.0
[2]; Storage 40 C., Initial
  Assay: 99.6
